Assay [1] relates to mutant Paracoccus sp. strain Y-1071. Put plainly: Glutamate vs yeast extract supplementation, test tube culture (defined medium), carotenoid by HPLC. Format: cell-based. As for the experimental part:
(§1) In the examples, carotenoids were quantified by high performance liquid chromatography (HPLC) as follows.
(§2) Two columns of Wakosil-II 5 SIL-100 (φ4.6×250 mm) (Wako Pure Chemical Industries, Ltd., Japan) were connected to each other for use as a column. Elution was performed by flowing an n-hexane-tetrahydrofuran-methanol mixed solution (40:20:1), which was a mobile phase, at a flow rate of 1.0 mL/minute at a constant temperature around room temperature. The measurement was performed as follows. Samples were each dissolved in tetrahydrofuran and then diluted 100-fold with the mobile phase. Each dilution was injected in a volume of 20 μL. The column eluate was detected at a wavelength of 470 nm. As a reference for quantification, astaxanthin (SIGMA, Cat. No. A9335) was used. The astaxanthin concentration of the reference solution was determined using the following equation after measuring the absorbance (A) of the reference solution at 477 nm and the area percentage % (B) of the astaxanthin peak at the time of HPLC analysis under the above conditions. Astaxanthin concentration (mg/L)=A/2150×B×100
A medium of the following composition (glucose 20 g/L, dry yeast 5 g/L, potassium dihydrogenphosphate 1.5 g/L, disodium hydrogenphosphate 12-hydrate 3.8 g/L, calcium chloride dihydrate 0.1 g/L, magnesium sulfate 7-hydrate 0.7 g/L, iron sulfate 7-hydrate 3 g/L, pH 7.2) was dispensed in 8 ml volumes into cotton-plugged test tubes having an inner diameter of 18 mm and sterilized in an autoclave at 121° C. for 15 minutes to prepare a test tube medium for seed culture.
Next, a medium of the following composition (glucose 40 g/L, ammonium sulfate 1.5 g/L, potassium dihydrogenphosphate 0.54 g/L, dipotassium hydrogenphosphate 2,78 g/L, calcium chloride dihydrate 1 g/L, sodium chloride 3 g/L, magnesium sulfate 7-hydrate 0.7 g/L, iron sulfate 7-hydrate 5 g/L, zinc sulfate 7-hydrate 2 mg/L, cobalt chloride 6-hydrate 2 mg/L, copper sulfate 5-hydrate 1 mg/L, manganese sulfate 5-hydrate 4 mg/L, sodium molybdate dihydrate 2 mg/L, nickel sulfate 6-hydrate 1 mg/L, sodium selenate 0.5 mg/L, boric acid 5 mg/L, potassium iodide 1 mg/L, cyanocobalamin 1 mg/L, riboflavin 10 mg/L, calcium pantothenate 15 mg/L, pyridoxine hydrochloride salt 20 mg/L, thiamine hydrochloride salt […], ascorbic acid 30 mg/L, folic acid 1 mg/L, niacin 15 mg/L, p-aminobenzoic acid 10 mg/L, biotin 0.1 mg/L, myo-inositol 50 mg/L, choline 10 mg/L, polyether-based defoaming agent 0.2 g/L) was dispensed in 8 ml volumes into cotton-plugged test tubes having an inner diameter of 18 mm (4 tubes in total).
For use in this medium, glucose, inorganic salts, trace metals and vitamins were prepared separately. Glucose, inorganic salts and trace metals were sterilized by heating at 121° C. for 15 minutes, while vitamins were sterilized by filtration. Then, these 4 solutions were mixed together.
Further, one of the test tubes was supplemented with a heat-sterilized aqueous solution of monosodium L-glutamate monohydrate to 6 g/L (32 mmol/L), another tube was supplemented with a heat-sterilized aqueous yeast extract to 6 g/L, another tube was supplemented with the same yeast extract to 12 g/L, and the other tube was supplemented with nothing. Finally, the mediums in the tubes were aseptically supplemented with 12% aqueous ammonia to give pH 7.2.
The mutant Paracoccus sp. strain Y-1071 selected in Example 3 was inoculated into the test tube medium for seed culture and then cultured with shaking at 30° C. for 2 days at 300 spm. The resulting culture solution was then inoculated in 0.1 ml volumes into the 4 test tube media and cultured with shaking at 3(1° C. for 3 days at 300 spm.
Each culture solution was measured for its carotenoid concentration by HPLC.

Assay [2] relates to Paracoccus sp. strain A-581-1 (FERM BP-4671). Put plainly: Glutamate supplementation, 5 L fermentation tank culture, carotenoid by HPLC. The class given is cell-based. As for the experimental part:
as §1, §2
A medium of the following composition (sucrose 20 g/L, filtered corn steep liquor 5 g/L, potassium dihydrogenphosphate 0.54 g/L, dipotassium hydrogenphosphate 12-hydrate 2.78 g/L, calcium chloride dihydrate 5.0 g/L, magnesium sulfate 7-hydrate 0.7 g/L, iron sulfate 7-hydrate 3.0 g/L, alcohol-based […] agent 0.2 g/L, pH 7.5) was dispensed in 100 ml volumes into 500 mL cotton-plugged Erlenmeyer flasks and sterilized in an autoclave at 121° C., for 15 minutes to prepare a flask medium for seed culture in 2 flasks.
Next, a medium of the following composition (glucose 40 g/L, corn steep liquor 30 g/L, ammonium sulfate 0.5 g/L, potassium dihydrogenphosphate 2.25 g/L, disodium hydrogenphosphate 12-hydrate 5.7 g/L, calcium chloride dihydrate […], magnesium sulfate 7-hydrate 0.5 g/L, iron sulfate 7-hydrate 5 g/L, alcohol-based defoaming agent 0.5 g/L) was dispensed in 2.0 L volumes into 5 L fermentation tanks (2 tanks in total). One of the fermentation tanks was supplemented with monosodium L-glutamate monohydrate to 15 mmol/L, while the other was supplemented with nothing as a control. These fermentation tanks were sterilized in an autoclave at 121° C. for 30 minutes.
A loopful of Paracoccus sp. strain A-581-1 (FERM BP-4671) was inoculated into the flask medium for seed culture and then cultured with rotary shaking at 27° C. for 2 days at 150 rpm. The resulting culture solution was then inoculated in 90 mL volumes into the individual fermentation tanks, followed by aerobic culture at 27° C. at an aeration volume of 1 vvm for 100 hours. To maintain a pH of 7.1 during culture, the pH was continuously controlled with 20% aqueous sodium hydroxide. Glucose was added in an amount of 30 g on […] day 2 of culture to prevent glucose depletion. At 22 and 29 hours of culture, monosodium L-glutamate monohydrate and ammonium sulfate were added in amounts of 5 g and 3 g, respectively, per liter of the initial medium. The minimum number of agitation rotations was set to 100 rpm, and the number of agitation rotations was varied such that the dissolved oxygen concentration in the culture solution was maintained at 2 to 4 ppm. An alcohol-based defoaming agent was added in an amount of 0.1 g per hour to prevent bubble formation,
At the completion of culture, each culture solution was measured for its carotenoid concentration by HPLC.

Setting [3] is: Glutamic acid concentration 15 mmol/L, 100 hours.

On to `N[C@@H](CCC(=O)O)C(=O)O` [Glutamic acid, glutamic acid], for which the “produced carotenoid concentration compared to the sample without glutamic acid” value in assay [1] (glutamic acid 6 g/L (32 mmol/L), yeast extract 6 g/L and 12 g/L) is recorded as “higher produced carotenoid concentration”. In assay [1] (supplement 6 g/L, 3 days), the “Produced carotenoid concentration, 3-Hydroxyechinenone” value amounted to 0.2 mg/L; the “Produced carotenoid concentration, Adonixanthin” value is reported as 3.3 mg/L; the “Produced carotenoid concentration, Astaxanthin” value is given as 13.7 mg/L; the “Produced carotenoid concentration, Asteroidenone” value was 0.2 mg/L. In addition, in assay [1] (supplement 6 g/L, 3 days), the “Produced carotenoid concentration, Canthaxanthin” value is on record as 1.8 mg/L; the “Produced carotenoid concentration, Echinenone” value is 0.9 mg/L; the “Produced carotenoid concentration, Phoenicoxanthin” value came to 4.1 mg/L; the “Produced carotenoid concentration, Total Carotenoid” value is listed as 26.3 mg/L. In addition, in assay [1] (supplement 6 g/L, 3 days), the “Produced carotenoid concentration, Zeaxanthin” value came out at 0.06 mg/L; the “Produced carotenoid concentration, β-Carotene” value turned out to be 2.0 mg/L; the “Produced carotenoid concentration, β-Cryptoxanthin” value is given as 0.02 mg/L. In addition, the “produced carotenoid concentration compared to the sample without glutamic acid” value in assay [2] (15 mmol/L) is on record as “higher produced carotenoid concentration”. Moreover, in assay [2] (setting [3]), the 3-Hydroxyechinenone is recorded as 0.05 mg/L, the Adonixanthin was 2.10 mg/L, the Astaxanthin turned out to be 5.97 mg/L and the Asteroidenone is reported as 0.02 mg/L. In assay [2] (setting [3]), the Canthaxanthin stood at 1.22 mg/L, the Echinenone was found to be 0.51 mg/L, the Phoenicoxanthin is listed as 2.01 mg/L and the “Total carotenoid” value stood at 13.68 mg/L. In assay [2] (setting [3]), the Zeaxanthin is on record as 0.03 mg/L, the β-Carotene came to 1.76 mg/L and the β-Cryptoxanthin turned out to be 0.01 mg/L.

The values above are taken from patent US8993282B2, “Carotenoid fermentation method” (JX Nippon Oil & Energy Corporation, priority 2008, dated 2015).
